US5672715A, “Herbicidal substituted 3-aryl-pyrazoles” (Monsanto Company, priority 1995, dated 1997)
Several values for one entry are separate records, joined by “and”; a condition that tells them apart may be missing. Equal entries are not always repeated.

Experiments:
Format in all cases: in vivo
Seedling Johnsongrass [1] = test: post-emergence herbicide test; settings: 0.25 lb/A
Excerpt: (§1) Topsoil was placed in aluminum pans having holes in the bottom and compacted to a depth of 1.3 to 1.6 cm from the top of the pan. A predetermined number of seeds of each of several dicotyledonous and monocotyledonous annual plant species and/or vegetative propagules for the perennial plant species were placed on the soil and pressed into the soil surface. The seeds and/or vegetative propagules were covered with soil and leveled. The pans were then placed on a bench in the greenhouse and watered either from overheard irrigation or by subirrigation as needed. After the plants reach the desired age (two to three weeks), each pan, is removed individually to a spraying chamber and sprayed by means of an atomizer, operating at a spray pressure of 170.3 kPa […] at the application rates noted. In the spray solution was an amount of an emulsifying agent mixture to give a spray solution or suspension which contains about 0.4% by volume of the emulsifier. The spray solution or suspension contained a sufficient amount of the candidate chemical in order to give application rates of the active ingredient corresponding to those shown in Tables 4 and 5, while applying a total amount of solution or suspension equivalent to 1870 L/Ha (200 gallons/acre). […] The post-emergent herbicidal activity shown in these tables is the percent inhibition of each plant species. Testing with warm season and cool season plants is shown in tables 4a-4d and […], respectively.

Bedstraw Catchweed [2] = test: post-emergence herbicide test; settings: 0.25 lb/A
Excerpt: as §1

Birdseye Speedwell [3] = test: post-emergence herbicide test; settings: 0.25 lb/A
Excerpt: as §1

Corn [4] = test: post-emergence herbicide test; settings: 0.25 lb/A
Excerpt: as §1

Velvetleaf [5] = test: post-emergence herbicide test; settings: 0.25 lb/A
Excerpt: as §1

Blackgrass = test: pre-emergence herbicide test; settings: Alopecurus myosuroides, pre-emergence, 0.25 lb/A; read-out: % plant inhibition
Procedure: (§2) Topsoil was placed in an aluminum pan and compacted to a depth of 1.3 to 1.6 cm from the top of the pan. On the top of the soil was placed a predetermined number of seeds of each of several monocotyledonous and dicotyledonous annual plant species and/or vegetative propagules of various perennial plant species. The pan was then level filled with a cover layer of topsoil to which was added a known amount of active ingredient either prior to or after application of the cover layer. The active ingredient was dissolved or suspended in an organic solvent, e.g., acetone, or water as carrier for application to the cover layer. The pans were moved to a greenhouse bench where they were thereafter watered from below as needed to give adequate moisture for germination and growth. In some cases, an initial overhead irrigation of 1/4 inch of water was applied immediately after treatment.
(§3) Approximately 14 days after seeding and treating, the pans were observed and the results (% inhibition) were recorded.
(§4) The tables below summarize the results of the pre-emergence herbicidal activity tests of compounds of this invention tested with warm season plants (Tables 2a-2d) and cool season plants (Tables 3a and 3b). The herbicidal rating shown in these tables is the percent inhibition of each plant species. The plant species usually regarded as weeds are identified in the tables by single letter headings and crop species identified by two letter headings both headings being above the columns in accordance with the following legend: […]

Giant Foxtail = test: pre-emergence herbicide test; settings: Setaria faberi, pre-emergence, 0.25 lb/A; read-out: % plant inhibition
Procedure: as §2, §3, §4

Barnyardgrass = test: pre-emergence herbicide test; settings: Echinochloa crus-galli, pre-emergence, 0.25 lb/A; read-out: % plant inhibition
Procedure: as §2, §3, §4

Wild Oats = test: pre-emergence herbicide test; settings: 0.25 lb/A
Procedure: as §2, §3, §4

Seedling Johnsongrass [6] = test: pre-emergence herbicide test; settings: Sorghum halepense, pre-emergence, 0.25 lb/A; read-out: % plant inhibition
Procedure: as §2, §3, §4

Wheat = test: pre-emergence herbicide test; settings: 0.25 lb/A
Procedure: as §2, §3, §4

Common Chickweed = test: pre-emergence herbicide test; settings: pre-emergence, 0.25 lb/A; read-out: % plant inhibition
Procedure: as §2, §3, §4

Morning Glory = test: pre-emergence herbicide test; settings: 0.25 lb/A
Procedure: as §2, §3, §4

Bedstraw Catchweed [7] = test: pre-emergence herbicide test; settings: 0.25 lb/A
Procedure: as §2, §3, §4

Birdseye Speedwell [8] = test: pre-emergence herbicide test; settings: pre-emergence, 0.25 lb/A; read-out: % plant inhibition
Procedure: as §2, §3, §4

Corn [9] = test: pre-emergence herbicide test; settings: 0.25 lb/A
Procedure: as §2, §3, §4

Green Foxtail = test: pre-emergence herbicide test; settings: Setaria viridis, pre-emergence; 0.25 lb/A; read-out: % plant inhibition
Procedure: as §2, §3, §4

Rape = test: pre-emergence herbicide test; settings: 0.25 lb/A
Procedure: as §2, §3, §4

Velvetleaf [10] = test: pre-emergence herbicide test; settings: 0.25 lb/A
Procedure: as §2, §3, §4

Downy Brome = test: pre-emergence herbicide test; settings: 0.25 lb/A
Procedure: as §2, §3, §4

Cocklebur = test: pre-emergence herbicide test; settings: 0.25 lb/A
Procedure: as §2, §3, §4

Cc1c(-c2cc(C(=O)OC(C)C)c(Cl)cc2F)nn(C)c1C(F)(F)F [Compound 8, 2-Chloro-5-[1,4-dimethyl-5-(trifluoromethyl)-1H-pyrazol-3-yl]-4-fluorobenzoic acid, 1-methylethyl ester]
% plant inhibition (Seedling Johnsongrass [1]): 90%
inhibition at 280.212 g/ha (Seedling Johnsongrass [1]; Sorghum halepense, post-emergence, read-out: % plant inhibition): 70%
% plant inhibition (Bedstraw Catchweed [2]): 60% and 95%
% plant inhibition (Birdseye Speedwell [3]): 55%
% plant inhibition (Corn [4]): 20%
inhibition at 280.212 g/ha (Corn [4]; Zea mays, post-emergence, read-out: % plant inhibition): 15%
% plant inhibition (Velvetleaf [5]): 99%
inhibition at 280.212 g/ha (Velvetleaf [5]; Abutilon theophrasti, post-emergence, read-out: % plant inhibition): 90%
inhibition at 280.212 g/ha (Blackgrass): 100%
inhibition at 280.212 g/ha (Giant Foxtail): 100%
inhibition at 280.212 g/ha (Barnyardgrass): 100%
% plant inhibition (Wild Oats): 100%
inhibition at 280.212 g/ha (Wild Oats; Avena fatua, pre-emergence, read-out: % plant inhibition): 95%
inhibition at 280.212 g/ha (Seedling Johnsongrass [6]): 100%
% plant inhibition (Wheat): 0%
inhibition at 280.212 g/ha (Common Chickweed): 100%
% plant inhibition (Morning Glory): 100%
% plant inhibition (Bedstraw Catchweed [7]): 100%
inhibition at 280.212 g/ha (Bedstraw Catchweed [7]; Galium aparine, pre-emergence, read-out: % plant inhibition): 90%
inhibition at 280.212 g/ha (Birdseye Speedwell [8]): 100%
% plant inhibition (Corn [9]): 85% and 90% and 70% and 100%
inhibition at 280.212 g/ha (Green Foxtail): 100%
% plant inhibition (Rape): 100% and 90%
inhibition at 280.212 g/ha (Rape; pre-emergence, read-out: % plant inhibition): 98%
% plant inhibition (Velvetleaf [10]): 100%
inhibition at 280.212 g/ha (Velvetleaf [10]; Abutilon theophrasti, pre-emergence, read-out: % plant inhibition): 98%
% plant inhibition (Downy Brome): 99%
inhibition at 280.212 g/ha (Downy Brome; Bromus tectorum, pre-emergence, read-out: % plant inhibition): 100%
% plant inhibition (Cocklebur): 80% and 75% and 99% and 85%
